How the values were obtained:
Type in all cases: in vivo
[1] = Effect against peptic ulcer formed by ligating the pylorus (Shay et al.); details: pylorus-ligated rat, 100 mg/kg intraperitoneal; for inhibition in vivo at 100 mg/kg: Rattus norvegicus, ip, 15 h, vs control group, read-out: Rate of suppression of peptic ulcer; for Coefficient of peptic ulcer: 15 hours
Method: Each male rat of a group consisting of 10 animals, weighing 180 to 200 g, after 48 hours' fasting, was subjected to ligature at its pyloric part under the anesthesia by ether following the method of Shay et al. (refer to Gastroenterology, Vol. 5, 43, 1945). Just after the ligature, each of the present compounds suspended in an aqueous physiological saline solution was injected into each rat's abdominal cavity at a dose rate of 100 mg/kg body weight, the control group being injected with an aqueous physiological saline solution. After keeping the rats at a state of fasting without taking water for 15 hours, the rats were sacrificed by ether and their stomachs were removed to examine under a microscope for autopsy. The longitudinal and horizontal lengths of the thus formed peptic ulcer were determined and expressed by the product (mm^2), and the total sum of the products was represented as the coefficient of ulcer.
The rate of suppression of peptic ulcer (%) is expressed by the ratio of the difference between the coefficient of peptic ulcer of control group and the coefficient of peptic ulcer of the treated group to the coefficient of peptic ulcer of control group multiplied by 100.

[2] = Effect on duodenal peptic ulcer induced by acetic acid (Okabe et al.); details: oral 100 mg/kg/day, three times a day for 10 days; for inhibition in vivo at 100 mg/kg/day: Rattus norvegicus, po, 240 h, vs control group, read-out: Rate of curation of peptic ulcer; for Coefficient of peptic ulcer: acetic acid duodenal ulcer rat
Excerpt: The inventors of the present invention, taking into account of these situations, added to the method of evaluation the effect of accelerating the curation of the peptic ulcer by orally administering the present compound and a commercialized anti-peptic medicine, respectively to rats to which duodenal peptic ulcer due to acetic acid (refer to Okabe, 1971) considered to be most closely resembling to human peptic ulcer has been artificially formed.
Following the method of Okabe et al. (refer to Amer. J. Dig. Dis., Vol. 16, 277, 1971), each male rat weighing 240 to 260 g of a group consisting of 15 animals was subjected to laparotomy under ether-anesthesia and a metal circular frame was put on a part of the serosa at the distance of 5 to 7 mm from the duodenal pylorus and 0.06 ml of glacial acetic acid was poured on the circular part of the frame. After 30 seconds, the acetic liquid was removed and the frame was also removed. Each of the present compounds suspended in an aqueous 0.5% CMC solution was orally administered to the rat from after 3 days of the operation three times a day for consecutive 10 days, rats of control group being given the aqueous 0.5% CMC solution. After ending the administration, the rats were sacrificed by ether, their duodenum being removed to be examined under a microscope for autopsy. The longitudinal and horizontal lengths of the thus formed ulcer were determined and the product of the lengths expressed by mm^2 was recorded as the coefficient of peptic ulcer. The rate of curation of peptic ulcer, in this Example is calculated by the same manner as the rate of suppression of peptic ulcer in Example 5.

[3] = Suppressive action on gastric secretion (pyloric ligature); details: rat, intraduodenal 200 mg/kg, 4 hours; for Rate of suppression on gastric secretion: vs control
Method: Groups of male rats (a group consisted of 10 animals) were subjected to pyloric ligature under etherization after fasting for 24 hours, and each of the compounds to be tested was administered intraduodenally as an emulsion or suspension in an aqueous 0.5% by weight solution of sodium carboxymethylcellulose just after ligation. After 4 hours of the laparotomy, the stomach of each rat was extirpated under etherization, and the amount of gastric juice in the stomach was measured.

Row | Compound | inhibition in vivo at 100 mg/kg [1] | Coefficient of peptic ulcer [1] | inhibition in vivo at 100 mg/kg/day [2] | Coefficient of peptic ulcer [2] | Amount of gastric juice [3] | Rate of suppression on gastric secretion [3]
1 | COc1ccc(OC)c(C2NC(=O)CS2)c1 (stereo not drawn) [2-(2,5-dimethoxyphenyl)-4-thiazolidone] | 79% | 9.4 mm^2 | 65.3% | 2.6 mm^2 | 3.5 mL | 32.8%
2 | COc1cccc(C2NC(=O)CS2)c1OC (stereo not drawn) [2-(2,3-dimethoxyphenyl)-4-thiazolidone] | 82.9% | 8.8 mm^2 | 82.7% | 1.3 mm^2 | 3.7 mL | 44.7%
3 | CN(C)c1ccc(C2NC(=O)CS2)cc1 (stereo not drawn) [2-(4-dimethylaminophenyl)-4-thiazolidone] | 75% | 10.5 mm^2 | 88% | 2.4 mm^2 | – | –
4 | O=C1CSC(c2ccccc2C(=O)O)N1 (stereo not drawn) [2-(2-carboxyphenyl)-4-thiazolidone] | 79.8% | 8.5 mm^2 | 60% | 3.0 mm^2 | – | –
5 | CCOc1ccccc1C1NC(=O)CS1 (stereo not drawn) [2-(2-ethoxyphenyl)-4-thiazolidone] | 81.9% | 7.6 mm^2 | 76% | 1.8 mm^2 | 4.3 mL | 35.8%
6 | COc1cc(C2NC(=O)CS2)cc(OC)c1OC (stereo not drawn) [2-(3,4,5-trimethoxyphenyl)-4-thiazolidone] | 85.8% | 6.5 mm^2 | 82.1% | 1.4 mm^2 | – | –
7 | COc1cc(C2NC(=O)CS2)cc(OC)c1O (stereo not drawn) [2-(3,5-dimethoxy-4-hydroxyphenyl)-4-thiazolidone] | 81.9% | 7.6 mm^2 | 88% | 2.4 mm^2 | – | –
8 | COc1cccc(C2NC(=O)CS2)c1 (stereo not drawn) [2-(3-methoxyphenyl)-4-thiazolidone] | 86% | 5.5 mm^2 | 73.3% | 2.0 mm^2 | – | –
9 | CC(C)=CCCC(C)=CCCC(C)=CCCC(=O)OCC=C(C)CCC=C(C)C [Gefarnate, 3,7dimethyl-2,6-octadienyl 5,9,13trimethyl-4,8,12-tetradecatrienoate, reference compound] | ~11% | 37.4 mm^2 | 23% | 5.8 mm^2 | 6.5 mL | 2.9%
10 | COc1ccc(C2NC(=O)CS2)cc1 (stereo not drawn) [2-(4-methoxyphenyl)-4-thiazolidone] | 68.1% | 13.4 mm^2 | 58.7% | 3.1 mm^2 | – | –
11 | COc1ccc(C2NC(=O)CS2)cc1OC (stereo not drawn) [2-(3,4-dimethoxyphenyl)-4-thiazolidone] | 91.9% | 3.4 mm^2 | 80% | 1.5 mm^2 | 3.3 mL | 50.7%
12 | COc1ccccc1C1NC(=O)CS1 (stereo not drawn) [2-(2-methoxyphenyl)-4-thiazolidone] | 87.4% | 5.3 mm^2 | 80% | 1.5 mm^2 | 4.0 mL | 40.2%

Reference: patent US4540702A, “2-Substituted-4-thiazolidones” (Kureha Kagaku Kogyo Kabushiki Kaisha, priority 1979, dated 1985)
